Earlier results as cited in patent publication US20220395499A1, “C[…] AFTER 5HT2A AGONISTS ADMINISTRATION” (Mind Medicine, Inc., priority 2021, published 2022).
Read-outs that look alike come from different tables or passages of the source.

Experiments:
[1] = LSD alone, no dose stated
[2] = not given; remark: listed apart in the source
[3] = target: CYP3A4 (Homo sapiens, UniProt P08684)
[4] = target: 5-HT2B receptors (Homo sapiens, UniProt P41595)
[5] = test system: adrenergic, dopaminergic, histaminergic, or muscarinic receptors
[6] = target: T1, 5HT2A receptor (Homo sapiens, UniProt P28223)
T1 construct: host or cells: human subjects (in vivo, oral dosing)
T1 sequence (P28223 whole entry): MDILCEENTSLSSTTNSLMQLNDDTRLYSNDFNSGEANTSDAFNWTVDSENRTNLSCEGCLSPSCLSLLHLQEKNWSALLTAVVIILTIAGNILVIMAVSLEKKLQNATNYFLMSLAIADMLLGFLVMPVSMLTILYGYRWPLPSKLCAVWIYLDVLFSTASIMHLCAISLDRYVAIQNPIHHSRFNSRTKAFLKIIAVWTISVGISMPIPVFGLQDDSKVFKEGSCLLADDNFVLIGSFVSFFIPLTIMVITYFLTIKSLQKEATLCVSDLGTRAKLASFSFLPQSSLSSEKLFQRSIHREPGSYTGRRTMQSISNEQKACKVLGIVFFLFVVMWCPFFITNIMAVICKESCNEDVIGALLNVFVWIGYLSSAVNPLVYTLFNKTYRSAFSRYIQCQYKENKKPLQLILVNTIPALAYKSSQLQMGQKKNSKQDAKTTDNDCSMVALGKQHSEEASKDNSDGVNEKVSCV

[7] = single 34-mg dose of pimavanserin

5-HT2B receptors, sequence (P41595 whole entry): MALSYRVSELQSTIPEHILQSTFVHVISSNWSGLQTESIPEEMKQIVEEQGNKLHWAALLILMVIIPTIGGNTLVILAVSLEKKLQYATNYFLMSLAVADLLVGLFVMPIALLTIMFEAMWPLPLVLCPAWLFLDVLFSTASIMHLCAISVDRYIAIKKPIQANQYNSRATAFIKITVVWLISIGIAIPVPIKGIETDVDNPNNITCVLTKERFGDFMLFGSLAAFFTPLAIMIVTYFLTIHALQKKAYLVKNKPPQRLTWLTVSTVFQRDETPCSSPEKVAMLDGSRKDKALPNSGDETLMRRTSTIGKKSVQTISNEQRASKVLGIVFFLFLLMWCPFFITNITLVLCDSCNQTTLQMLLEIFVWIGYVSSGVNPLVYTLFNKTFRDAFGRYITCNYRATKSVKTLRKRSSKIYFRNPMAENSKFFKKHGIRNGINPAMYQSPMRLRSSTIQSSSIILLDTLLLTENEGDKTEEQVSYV
CYP3A4, sequence (P08684 whole entry): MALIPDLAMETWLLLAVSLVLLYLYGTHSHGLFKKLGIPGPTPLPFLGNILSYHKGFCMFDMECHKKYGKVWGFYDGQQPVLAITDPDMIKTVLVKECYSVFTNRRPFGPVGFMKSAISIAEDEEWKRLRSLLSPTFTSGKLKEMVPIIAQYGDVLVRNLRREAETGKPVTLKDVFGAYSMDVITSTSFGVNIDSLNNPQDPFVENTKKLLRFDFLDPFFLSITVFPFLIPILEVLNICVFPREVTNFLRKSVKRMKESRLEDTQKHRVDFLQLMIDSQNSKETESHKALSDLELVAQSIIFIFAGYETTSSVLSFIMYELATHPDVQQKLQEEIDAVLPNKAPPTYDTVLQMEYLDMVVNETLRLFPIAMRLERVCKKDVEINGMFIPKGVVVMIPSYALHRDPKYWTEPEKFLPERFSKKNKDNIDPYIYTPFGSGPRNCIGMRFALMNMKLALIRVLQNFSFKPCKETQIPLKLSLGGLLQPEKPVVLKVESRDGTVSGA

In the case of CC(C)COc1ccc(CNC(=O)N(Cc2ccc(F)cc2)C2CCNCC2)cc1 [AC-279], the “half-life of the active N-desmethylated metabolite” value (metabolite of pimavanserin) is listed as 200 h.
In the case of CCN(CC)C(=O)[C@@H]1C=C2c3cccc4[nH]cc(c34)C[C@H]2N(C)C1 [LSD, Lysergic acid diethylamide], the “usual duration of action” value [1] is listed as 8 to 12 h.
In the case of CC(C)COc1ccc(CNC(=O)N(Cc2ccc(F)cc2)C2CCN(C)CC2)cc1 [Pimavanserin, pimavanserin], the half-life [7] is listed as “approximately 57 hours”, the “mean (SD) apparent volume of distribution” value [7] is listed as 2,173 (307) L and the “time to maximum plasma concentration” value [7] is listed as “six”. The plasma protein binding [2] was “highly bound to plasma protein”, the “CYP3A4 inhibition or induction” value [3] was “does not cause significant CYP3A4 inhibition or induction” and the “affinity for 5-HT2B receptors” value [4] was “no affinity”. For the same molecule, the “antagonism of adrenergic, dopaminergic, histaminergic, or muscarinic receptors” value [5] was “does not induce clinically significant antagonism”.
For O=C(c1ccc(F)cc1)C1CCN(CCn2c(=O)[nH]c3ccccc3c2=O)CC1 [ketanserin], the “effect on the LSD experience” value ([6]; ketanserin 40 mg orally 1 hour prior to a high dose of LSD of 200 μg, Liechti) is given as “prevented the LSD experience” and the “effect on the LSD experience” value ([6]; ketanserin 40 mg orally 1 hour prior to oral LSD at a moderate dose (70-100 μg), Preller et al., 2017) is given as “prevent the LSD experience almost completely”.
